Measured values from US20110306573A1, “NUCLEOSIDE DERIVATIVES AS INHIBITORS OF VIRAL POLYMERASES” (priority 2008, published 2011).

biological target: T1, HCV NS5B polymerase (Hepatitis C virus genotype 1b, UniProt P26663); assay: Assay for inhibition of HCV NS5B polymerase (RdRp, 3H-UTP incorporation on heteromeric RNA template); format: biochemical; settings: heterogeneous template dCoh, 2 nM DC55-lb.BK or 10 nM DC55-2b.2, NTPs 1 uM, room temperature 2 hours
T1 construct: RNA-dependent RNA polymerase (NS5B) of the hepatitis C virus (HCV)
Protocol: The effectiveness of the compounds of the present invention as inhibitors of HCV NS5B RNA-dependent RNA polymerase (RdRp) was measured in the following assay.
This assay was used to measure the ability of the nucleoside derivatives of the present invention to inhibit the enzymatic activity of the RNA-dependent RNA polymerase (NS5B) of the hepatitis C virus (HCV) on a heteromeric RNA template.
Assay Buffer Conditions: (52.5 μL-total/reaction)
20 nM heterogeneous template dCoh
2.5 μl/reaction inhibitor compound in H2O
The compounds were tested at various concentrations up to 100 μM final concentration. Nucleoside derivatives were pipetted into wells of a 96-well plate. The enzyme diluted in the reaction buffer was pipetted into the wells and incubated at room temperature for 10 minutes; then the template dCoh was added and incubated for 10 minutes at room temperature. The reaction was initiated by addition of a mixture of nucleotide triphosphates (NTP's), including the radiolabeled UTP, and allowed to proceed at room temperature for 2 hours. Blank samples were done omitting the dCoh template. The reaction was quenched by addition of 50 ul TCA 20% (trichloroacetic acid)/NaPPi 20 mM and the plates were put in ice for 5 minutes. Then, the mixtures were filtered onto Unifilter GF/B 96-well plates (PerkinElmer), washed with TCA 2.5%. 50 ul/well of scintillator solution (Microscint 20, PerkinElmer) were added and the plates were counted in a scintillator counter.
The percentage of inhibition was calculated according to the following equation:
% Inhibition=[1−(cpm in test reaction−cpm in blank)/(cpm in control reaction−cpm in blank)]×100.

T1 sequence (P26663 2420-2955): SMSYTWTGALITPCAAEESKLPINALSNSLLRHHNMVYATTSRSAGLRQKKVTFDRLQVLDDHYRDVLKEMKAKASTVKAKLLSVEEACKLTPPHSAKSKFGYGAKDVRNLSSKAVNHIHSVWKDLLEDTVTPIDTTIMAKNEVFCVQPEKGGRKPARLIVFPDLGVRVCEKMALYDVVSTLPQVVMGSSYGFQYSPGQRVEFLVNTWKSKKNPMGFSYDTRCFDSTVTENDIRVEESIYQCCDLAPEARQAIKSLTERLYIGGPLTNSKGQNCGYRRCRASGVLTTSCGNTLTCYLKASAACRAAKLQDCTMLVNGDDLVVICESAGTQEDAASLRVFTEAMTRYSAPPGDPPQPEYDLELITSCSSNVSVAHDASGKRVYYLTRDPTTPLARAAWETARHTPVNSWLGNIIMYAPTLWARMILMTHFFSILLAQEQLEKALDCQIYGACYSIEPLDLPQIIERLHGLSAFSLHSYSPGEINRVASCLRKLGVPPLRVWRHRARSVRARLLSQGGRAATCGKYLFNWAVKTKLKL

| Compound | IC50 [µM] |
| --- | --- |
| 7-(2-C-methyl-5-triphospho-β-D-ribofuranosyl)-5-(1-methyl-1H-tetrazol-5-yl)-7H-pyrrolo[2,3-d]pyrimidin-4-amine and 7-(2-C-methyl-5-triphospho-β-D-ribofuranosyl)-5-(2-methyl-2H-tetrazol-5-yl)-7H-pyrrolo[2,3-d]pyrimidin-4-amine [Compound 10] | < 50 |
| C[C@@]1(O)[C@H](O)[C@@H](COP(=O)(O)OP(=O)(O)OP(=O)(O)O)O[C@H]1n1cc(-c2ncccn2)c2c(N)ncnc21 [Compound 12, 7-(2-C-methyl-5-triphospho-β-D-ribofuranosyl)-5-pyrimidin-2-yl-7H-pyrrolo[2,3-d]pyrimidin-4-amine] | < 50 |

Now from value to compound:

| IC50 [µM] | Compound |
| --- | --- |
| < 1 | C[C@@]1(O)[C@H](O)[C@@H](COP(=O)(O)OP(=O)(O)OP(=O)(O)O)O[C@H]1n1cc(-c2ncco2)c2c(N)ncnc21 [Compound 11, 7-(2-C-methyl-5-triphospho-β-D-ribofuranosyl)-5-(1,3-oxazol-2-yl)-7H-pyrrolo[2,3-d]pyrimidin-4-amine] |
| < 50 | COc1nc(-c2cn([C@@H]3O[C@H](COP(=O)(O)OP(=O)(O)OP(=O)(O)O)[C@@H](O)[C@@]3(C)O)c3ncnc(N)c23)cs1 [Compound 13, 5-(2-methoxy-1,3-thiazol-4-yl)-7-(2-C-methyl-5-triphospho-β-D-ribofuranosyl)-7H-pyrrolo[2,3-d]pyrimidin-4-amine] |
| < 1 | C[C@@]1(O)[C@H](O)[C@@H](COP(=O)(O)OP(=O)(O)OP(=O)(O)O)O[C@H]1n1cc(-c2cc[nH]n2)c2c(N)ncnc21 [Compound 14, 7-(2-C-methyl-5-triphospho-β-D-ribofuranosyl)-5-(1H-pyrazol-5-yl)-7H-pyrrolo[2,3-d]pyrimidin-4-amine] |
| < 50 | C[C@@]1(O)[C@H](O)[C@@H](COP(=O)(O)OP(=O)(O)OP(=O)(O)O)O[C@H]1n1cc(-c2cn[nH]c2)c2c(N)ncnc21 [Compound 15, 7-(2-C-methyl-5-triphospho-β-D-ribofuranosyl)-5-(1H-pyrazol-4-yl)-7H-pyrrolo[2,3-d]pyrimidin-4-amine] |
| < 1 | C[C@@]1(O)[C@H](O)[C@@H](COP(=O)(O)OP(=O)(O)OP(=O)(O)O)O[C@H]1n1cc(-c2ncon2)c2c(N)ncnc21 [Compound 16, 7-(2-C-methyl-5-triphospho-β-D-ribofuranosyl)-5-(1,2,4-oxadiazol-3-yl)-7H-pyrrolo[2,3-d]pyrimidin-4-amine] |

test system: subgenomic HCV Replicon in HuH-7 hepatoma cells; assay: Assay for inhibition of HCV RNA replication (subgenomic replicon, in situ ribonuclease protection SPA); format: cell-based, Hepatitis C Virus; settings: Hepatitis C virus; HuH-7 cells containing a subgenomic HCV Replicon, compounds up to 100 μM in 1% DMSO, cultured 24-96 h; read-out: EC50
Protocol: The compounds of the present invention were also evaluated for their ability to affect the replication of Hepatitis C Virus RNA in cultured hepatoma (HuH-7) cells containing a subgenomic HCV Replicon. The details of the assay are described below. This Replicon assay is a modification of that described in V. Lohmann, F. Korner, J-O. Koch, U. Herian, L. Theilmann, and R. Bartenschlager, “Replication of a Sub-genomic Hepatitis C Virus RNAs in a Hepatoma Cell Line,” Science 285:110 (1999).
The assay was an in situ Ribonuclease protection, Scintillation Proximity based-plate assay (SPA). 10,000-40,000 cells were plated in 100-200 μL of media containing 0.8 mg/mL G418 in 96-well cytostar plates (Amersham). Compounds were added to cells at various concentrations up to 100 μM in 1% DMSO at time 0 to 18 h and then cultured for 24-96 h. Cells were fixed (20 min, 10% formalin), permeabilized (20 min, 0.25% Triton X-100/PBS) and hybridized (overnight, 50° C.) with a single-stranded ^33P RNA probe complementary to the (+) strand NS5B (or other genes) contained in the RNA viral genome. Cells were washed, treated with RNAse, washed, heated to 65° C. and counted in a Top-Count Inhibition of replication was read as a decrease in counts per minute (cpm).
Human HuH-7 hepatoma cells, which were selected to contain a subgenomic replicon, carry a cytoplasmic RNA consisting of an HCV 5′ non-translated region (NTR), a neomycin selectable marker, an EMCV IRES (internal ribosome entry site), and HCV non-structural proteins NS3 through NS5B, followed by the 3′ NTR.

| Compound | EC50 [µM] |
| --- | --- |
| C[C@@]1(F)[C@H](O)[C@@H](CO)O[C@H]1n1cc(-c2ncco2)c2c(N)ncnc21 [Compound 22, 7-(2-deoxy-2-fluoro-2-methyl-β-D-ribofuranosyl)-5-(1,3-oxazol-2-yl)-7H-pyrrolo[2,3-d]pyrimidin-4-amine] | 20 to 50 |
| C[C@@]1(F)[C@H](O)[C@@H](CO)O[C@H]1n1cc(-c2ncon2)c2c(N)ncnc21 [Compound 23, 7-(2-deoxy-2-fluoro-2-methyl-β-D-ribofuranosyl)-5-(1,2,4-oxadiazol-3-yl)-7H-pyrrolo[2,3-d]pyrimidin-4-amine] | 20 to 50 |
| COc1ccc(-c2cn([C@@H]3O[C@H](CO)[C@@H](O)[C@@]3(C)O)c3ncnc(N)c23)cn1 [Compound 24, 7-(2-C-methyl-β-D-ribofuranosyl)-5-(6-methoxypyridin-3-yl)-7H-pyrrolo[2,3-d]pyrimidin-4-amine] | > 50 |
| C[C@@]1(O)[C@H](O)[C@@H](CO)O[C@H]1n1nc(-c2cc[nH]n2)c2c(N)ncnc21 [Compound 25, 1-(2-C-methyl-β-D-ribofuranosyl)-3-(1H-pyrazol-3-yl)-1H-pyrazolo[3,4-d]pyrimidin-4-amine] | < 20 |
| C[C@@]1(O)[C@H](O)[C@@H](CO)O[C@H]1n1cc(-c2nnco2)c2c(N)ncnc21 [Compound 27, 7-(2-C-methyl-β-D-ribofuranosyl)-5-(1,3,4-oxadiazol-2-yl)-7H-pyrrolo[2,3-d]pyrimidin-4-amine] | < 20 |
